In US7851474B2, “Dipiperazinyl ketones and related analogues” (Neurogen Corporation, priority 2005, dated 2010):

Biological target: T1, chimeric human H3 receptor (Homo sapiens, UniProt Q9Y5N1, E19D)
T1 construct: made in house; host or cells: Sf9 insect cells (baculovirus infection); P2 membrane preparation
Assay: Chimeric human H3 receptor GTP binding assay (agonist-stimulated GTP-gamma35S binding, Example 7)
Type: biochemical
Conditions: Table II, "*" in Ki; assay of Example 7; read-out: Ki
Outline: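 Sf9 membranes co-expressing the chimeric receptor and heterotrimeric G-protein subunits, 35 μg protein per tube, in pH 7.4 Tris buffer with 10 μM GDP. Test compounds at 10^−10 to 10^−6 M with 1 μM histamine, 60 min at room temperature. Filter-bound GTP-gamma^35S read by scintillation; IC50 from non-linear regression of dose-response curves.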

T1 sequence (Q9Y5N1 with tags, fused parts or gaps E19D): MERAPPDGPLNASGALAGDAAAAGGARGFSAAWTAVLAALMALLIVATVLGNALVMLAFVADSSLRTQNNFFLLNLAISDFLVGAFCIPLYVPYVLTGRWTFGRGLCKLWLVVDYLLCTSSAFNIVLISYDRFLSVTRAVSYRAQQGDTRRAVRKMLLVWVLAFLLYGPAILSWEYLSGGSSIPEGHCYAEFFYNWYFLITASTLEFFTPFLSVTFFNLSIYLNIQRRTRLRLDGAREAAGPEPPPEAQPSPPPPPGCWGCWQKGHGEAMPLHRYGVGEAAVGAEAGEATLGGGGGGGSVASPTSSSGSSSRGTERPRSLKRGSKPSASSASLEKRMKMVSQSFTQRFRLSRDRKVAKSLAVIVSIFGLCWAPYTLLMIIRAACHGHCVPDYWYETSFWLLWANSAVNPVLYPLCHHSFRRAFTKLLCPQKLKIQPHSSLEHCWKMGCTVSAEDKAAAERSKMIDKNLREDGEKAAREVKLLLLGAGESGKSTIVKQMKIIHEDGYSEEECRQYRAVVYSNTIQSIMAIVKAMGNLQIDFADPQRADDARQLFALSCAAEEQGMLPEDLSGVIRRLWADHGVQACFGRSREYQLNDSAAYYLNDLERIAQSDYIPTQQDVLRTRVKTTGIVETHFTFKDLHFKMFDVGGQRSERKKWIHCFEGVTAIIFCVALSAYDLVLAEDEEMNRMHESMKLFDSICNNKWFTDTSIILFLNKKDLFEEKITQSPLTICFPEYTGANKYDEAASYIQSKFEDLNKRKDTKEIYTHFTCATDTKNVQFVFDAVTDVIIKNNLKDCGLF

Structure (SMILES)	Ki [µM]
O=C(CN1CCC(F)(c2ccccc2)CC1)N1CCN(C2CCC2)CC1 [Compound 654, 1-cyclobutyl-4-[(4-fluoro-4-phenylpiperidin-1-yl)acetyl]piperazine]	< 1
O=C(CN1CC=C(c2ccccc2)CC1)N1CCN(C2CCC2)CC1 [Compound 656, 1-cyclobutyl-4-[(4-phenyl-3,6-dihydropyridin-1(2H)-yl)acetyl]piperazine]	< 1
O=C(CN1CCN(c2ccccc2)CC1)N1CCN(C2CCC2)CC1 [Compound 657, 1-cyclobutyl-4-[(4-phenylpiperazin-1-yl)acetyl]piperazine]	< 1
O=C(CN1CCC(N2CCCC2)CC1)N1CCN(C2CCC2)CC1 [Compound 658, 1-cyclobutyl-4-[(4-pyrrolidin-1-ylpiperidin-1-yl)acetyl]piperazine]	< 1
O=C(CN1CCN(c2ccc(-c3cccc(Cl)c3Cl)cc2)CC1)N1CCN(C2CCC2)CC1 [Compound 665, 1-cyclobutyl-4-{[4-(2′,3′-dichlorobiphenyl-4-yl)piperazin-1-yl]acetyl}piperazine]	< 1
O=C(CN1CCN(c2cccc(Cl)c2Cl)CC1)N1CCN(C2CCC2)CC1 [Compound 666, 1-cyclobutyl-4-{[4-(2,3-dichlorophenyl)piperazin-1-yl]acetyl}piperazine]	< 1
O=C(CN1CCN(c2ccc(-c3cccc(F)c3F)cc2)CC1)N1CCN(C2CCC2)CC1 [Compound 667, 1-cyclobutyl-4-{[4-(2′,3′-difluorobiphenyl-4-yl)piperazin-1-yl]acetyl}piperazine]	< 1
Cc1cc(C)c(-c2ccc(N3CCN(CC(=O)N4CCN(C5CCC5)CC4)CC3)cc2)c(C)c1 [Compound 673, 1-cyclobutyl-4-{[4-(2′,4′,6′-trimethylbiphenyl-4-yl)piperazin-1-yl]acetyl}piperazine]	< 1
O=C(CN1CCN(c2ccc(-c3ccc(Cl)cc3Cl)cc2)CC1)N1CCN(C2CCC2)CC1 [Compound 675, 1-cyclobutyl-4-{[4-(2′,4′-dichlorobiphenyl-4-yl)piperazin-1-yl]acetyl}piperazine]	< 1
O=C(CN1CCN(c2ccc(-c3ccc(F)cc3F)cc2)CC1)N1CCN(C2CCC2)CC1 [Compound 676, 1-cyclobutyl-4-{[4-(2′,4′-difluorobiphenyl-4-yl)piperazin-1-yl]acetyl}piperazine]	< 1
COc1ccc(-c2ccc(N3CCN(CC(=O)N4CCN(C5CCC5)CC4)CC3)cc2)c(OC)c1 [Compound 678, 1-cyclobutyl-4-{[4-(2′,4′-dimethoxybiphenyl-4-yl)piperazin-1-yl]acetyl}piperazine]	< 1
O=C(CN1CCN(c2ccc(-c3cc(Cl)ccc3Cl)cc2)CC1)N1CCN(C2CCC2)CC1 [Compound 682, 1-cyclobutyl-4-{[4-(2′,5′-dichlorobiphenyl-4-yl)piperazin-1-yl]acetyl}piperazine]	< 1
COc1cc(F)c(-c2ccc(N3CCN(CC(=O)N4CCN(C5CCC5)CC4)CC3)cc2)cc1F [Compound 683, 1-cyclobutyl-4-{[4-(2′,5′-difluoro-4′-methoxybiphenyl-4-yl)piperazin-1-yl]acetyl}piperazine]	< 1
O=C(CN1CCN(c2ccc(-c3cc(F)ccc3F)cc2)CC1)N1CCN(C2CCC2)CC1 [Compound 685, 1-cyclobutyl-4-{[4-(2′,5′-difluorobiphenyl-4-yl)piperazin-1-yl]acetyl}piperazine]	< 1
COc1ccc(OC)c(-c2ccc(N3CCN(CC(=O)N4CCN(C5CCC5)CC4)CC3)cc2)c1 [Compound 687, 1-cyclobutyl-4-{[4-(2′,5′-dimethoxybiphenyl-4-yl)piperazin-1-yl]acetyl}piperazine]	< 1
COc1cccc(OC)c1-c1ccc(N2CCN(CC(=O)N3CCN(C4CCC4)CC3)CC2)cc1 [Compound 695, 1-cyclobutyl-4-{[4-(2′,6′-dimethoxybiphenyl-4-yl)piperazin-1-yl]acetyl}piperazine]	< 1
Cc1cccc(C)c1-c1ccc(N2CCN(CC(=O)N3CCN(C4CCC4)CC3)CC2)cc1 [Compound 697, 1-cyclobutyl-4-{[4-(2′,6′-dimethylbiphenyl-4-yl)piperazin-1-yl]acetyl}piperazine]	< 1
CCOc1ccccc1-c1ccc(N2CCN(CC(=O)N3CCN(C4CCC4)CC3)CC2)cc1 [Compound 700, 1-cyclobutyl-4-{[4-(2′-ethoxybiphenyl-4-yl)piperazin-1-yl]acetyl}piperazine]	< 1

Other lines, results leading:

Ki [µM]	Structure (SMILES)
< 1	CC1CCCN1C(=O)c1ccc(N2CCN(CC(=O)N3CCN(C4CCC4)CC3)CC2)cc1 (centres unmarked) [Compound 645, 1-cyclobutyl-4-[(4-{4-[(2-methylpyrrolidin-1-yl)carbonyl]phenyl}piperazin-1-yl)acetyl]piperazine]
< 1	CC1CC(C)CN(C(=O)c2ccc(N3CCN(CC(=O)N4CCN(C5CCC5)CC4)CC3)cc2)C1 (centres unmarked) [Compound 646, 1-cyclobutyl-4-[(4-{4-[(3,5-dimethylpiperidin-1-yl)carbonyl]phenyl}piperazin-1-yl)acetyl]piperazine]
< 1	O=C(CN1CCN(c2ccc(C(=O)N3CCC(F)(F)CC3)cc2)CC1)N1CCN(C2CCC2)CC1 [Compound 647, 1-cyclobutyl-4-[(4-{4-[(4,4-difluoropiperidin-1-yl)carbonyl]phenyl}piperazin-1-yl)acetyl]piperazine]
< 1	O=C(CN1CCN(c2ccc(C(=O)N3CCC(F)CC3)cc2)CC1)N1CCN(C2CCC2)CC1 [Compound 648, 1-cyclobutyl-4-[(4-{4-[(4-fluoropiperidin-1-yl)carbonyl]phenyl}piperazin-1-yl)acetyl]piperazine]
< 1	CC1CCN(C(=O)c2ccc(N3CCN(CC(=O)N4CCN(C5CCC5)CC4)CC3)cc2)CC1 [Compound 649, 1-cyclobutyl-4-[(4-{4-[(4-methylpiperidin-1-yl)carbonyl]phenyl}piperazin-1-yl)acetyl]piperazine]
< 1	CCC1CCCCN1C(=O)c1ccc(N2CCN(CC(=O)N3CCN(C4CCC4)CC3)CC2)nc1 (centres unmarked) [Compound 650, 1-cyclobutyl-4-[(4-{5-[(2-ethylpiperidin-1-yl)carbonyl]pyridin-2-yl}piperazin-1-yl)acetyl]piperazine]
< 1	CC1CCCCN1C(=O)c1ccc(N2CCN(CC(=O)N3CCN(C4CCC4)CC3)CC2)nc1 (centres unmarked) [Compound 651, 1-cyclobutyl-4-[(4-{5-[(2-methylpiperidin-1-yl)carbonyl]pyridin-2-yl}piperazin-1-yl)acetyl]piperazine]
< 1	CC1CCCN1C(=O)c1ccc(N2CCN(CC(=O)N3CCN(C4CCC4)CC3)CC2)nc1 (centres unmarked) [Compound 652, 1-cyclobutyl-4-[(4-{5-[(2-methylpyrrolidin-1-yl)carbonyl]pyridin-1-yl}piperazin-1-yl)acetyl]piperazine]
< 1	CC1CC(C)CN(C(=O)c2ccc(N3CCN(CC(=O)N4CCN(C5CCC5)CC4)CC3)nc2)C1 (centres unmarked) [Compound 653, 1-cyclobutyl-4-[(4-{5-[(3,5-dimethylpiperidin-1-yl)carbonyl]pyridin-2-yl}piperazin-1-yl)acetyl]piperazine]
< 1	Cc1cccc(N2CCN(CC(=O)N3CCN(C4CCC4)CC3)CC2)c1C [Compound 672, 1-cyclobutyl-4-{[4-(2,3-dimethylphenyl)piperazin-1-yl]acetyl}piperazine]
< 1	Cc1cccc(C)c1N1CCN(CC(=O)N2CCN(C3CCC3)CC2)CC1 [Compound 698, 1-cyclobutyl-4-{[4-(2,6-dimethylphenyl)piperazin-1-yl]acetyl}piperazine]
